Our source for the EC50 values is patent publication US11046680B1, “Heteroaryl-substituted triazoles as APJ receptor agonists” (priority 2016, dated 2021).

The target in this experiment is human APJ receptor (Homo sapiens (Human), UniProt P35414). In words: biochemical. The class given is biochemical. The conditions noted are these: [35S]GTPγS binding, CHO membranes expressing human APJ receptor; read-out: Activity hAPJ SPA EC50 IP. The gist of the method:
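Membranes of a stable CHO line carrying human APJ (pFLAG-CMV-3) were used in a GTPγS binding format; buffer GDP, MgCl2 and NaCl were optimized, and plates were read after 90 min at RT.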
For orientation: GTPγS is a poorly hydrolysed GTP analogue; its binding reports G protein activation.

Chain of human APJ receptor (P35414 whole entry): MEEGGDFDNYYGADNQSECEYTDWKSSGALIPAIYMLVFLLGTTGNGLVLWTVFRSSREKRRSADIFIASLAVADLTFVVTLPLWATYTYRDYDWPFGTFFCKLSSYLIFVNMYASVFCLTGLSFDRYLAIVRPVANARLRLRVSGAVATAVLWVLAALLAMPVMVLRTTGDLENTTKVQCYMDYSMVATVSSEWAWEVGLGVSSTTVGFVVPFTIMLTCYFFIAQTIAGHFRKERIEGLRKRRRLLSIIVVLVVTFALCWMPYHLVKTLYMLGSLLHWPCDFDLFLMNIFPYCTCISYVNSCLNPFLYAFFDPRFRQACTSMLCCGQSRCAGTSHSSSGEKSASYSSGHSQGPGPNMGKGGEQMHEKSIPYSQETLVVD

For orientation: EC50 means the concentration at which the effect is half-maximal. Take `COc1cccc(OC)c1-n1c(NS(=O)(=O)[C@@H](C)[C@H](OC)c2ncc(C)cn2)nnc1-c1c(C)nc2ccccn12` [Example 410.0, (1R,25)-N-(4-(2,6-dimethoxyphenyl)-5-(2-methylimidazo[1,2-a]pyridin-3-yl)-4H-1,2,4-triazol-3-yl)-1-methoxy-1-(5-methylpyrimidin-2-yl)propane-2-sulfonamide]: the 50% effective concentration (EC50) stood at 940 nM.

As for `COc1cccc(OC)c1-n1c(NS(=O)(=O)[C@H](C)[C@H](C)c2ncc(F)cn2)nnc1-c1nc(C)cs1` (single isomer, unassigned) [Example 165.0], the EC50 worked out at 110 nM.

Take `COc1cccc(OC)c1-n1c(NS(=O)(=O)[C@@H](C)[C@H](OC)c2ncc(C)cn2)nnc1-c1nc(C2CC2)cs1` [Example 340.0, (1R,2S)-N-(5-(4-cyclopropyl-1,3-thiazol-2-yl)-4-(2,6-dimethoxyphenyl)-4H-1,2,4-triazol-3-yl)-1-methoxy-1-(5-methyl-2-pyrimidinyl)-2-propanesulfonamide]: the half-maximal effective concentration (EC50) stood at 0.26 nM.

Consider `CNC(=O)n1ccc(-c2nnc(NS(=O)(=O)[C@@H](C)Cc3ncc(F)cn3)n2-c2c(OC)cccc2OC)n1` (single isomer, unassigned) [Example 74.0], for which the EC50 turned out to be 22 nM.

Take `COc1cccc(OC)c1-n1c(NS(=O)(=O)[C@H](C)[C@H](O)c2ncc(C)cn2)nnc1-c1nc(C)cs1` (single isomer, unassigned) [Example 315.0, (1R,2R)-N-(4-(2,6-dimethoxyphenyl)-5-(4-methylthiazol-2-yl)-4H-1,2,4-triazol-3-yl)-1-hydroxy-1-(5-methylpyrimidin-2-yl)propane-2-sulfonamide or (1S,2S)-N-(4-(2,6-dimethoxyphenyl)-5-(4-methylthiazol-2-yl)-4H-1,2,4-triazol-3-yl)-1-hydroxy-1-(5-methylpyrimidin-2-yl)propane-2-sulfonamide]: the EC50 came to 0.68 nM.

`COc1cccc(OC)c1-n1c(NS(=O)(=O)[C@@H](C)[C@H](OC)c2ncc(C)cn2)nnc1-c1ncn(C)n1` [Example 204.0, (1R,2S)-N-(4′-(2,6-dimethoxyphenyl)-1-methyl-1H,4′H-3,3′-bi-1,2,4-triazol-5′-yl)-1-methoxy-1-(5-methyl-2-pyrimidinyl)-2-propanesulfonamide]: the half-maximal effective concentration (EC50) stood at 52 nM.

In the case of `COc1ncnc(OC)c1-n1c(NS(=O)(=O)[C@@H](C)[C@H](OC)c2ncc(Cl)cn2)nnc1-c1cnn2ccccc12` [Example 439.0, (1R,2S)-1-(5-chloropyrimidin-2-yl)-N-(4-(4,6-dimethoxypyrimidin-5-yl)-5-(pyrazolo[1,5-a]pyridin-3-yl)-4H-1,2,4-triazol-3-yl)-1-methoxypropane-2-sulfonamide], the EC50 turned out to be 0.82 nM.

As for `COc1cnc([C@@H](C)[C@@H](C)S(=O)(=O)Nc2nnc(-c3ccn(C)n3)n2-c2c(OC)ncnc2OC)nc1` [Example 298.0], the 50% effective concentration (EC50) was found to be 1 nM.

Consider `COc1cccc(OC)c1-n1c(NS(=O)(=O)[C@@H](C)[C@H](OC)c2ncc(C)cn2)nnc1-c1cnc2[nH]ccc2n1` [Example 206.0], for which the EC50 was 96 nM.

For the compound `CO[C@H](c1ncc(Cl)cn1)[C@H](C)S(=O)(=O)Nc1nnc(-c2n[nH]c3c2CCC3)n1C1(C)CCC1` [Example 492.0, (1R,2S)-1-(5-chloropyrimidin-2-yl)-1-methoxy-N-(4-(1-methylcyclobutyl)-5-(1,4,5,6-tetrahydrocyclopenta[c]pyrazol-3-yl)-4H-1,2,4-triazol-3-yl)propane-2-sulfonamide], the EC50 was determined as 34 nM.

As to `COc1ncnc(OC)c1-n1c(NS(=O)(=O)[C@@H](C)[C@H](OC)c2ncc(Cl)cn2)nnc1-c1noc2ccccc12` [Example 420.0, (1R,2S)-N-(5-(benzo[d]isoxazol-3-yl)-4-(4,6-dimethoxypyrimidin-5-yl)-4H-1,2,4-triazol-3-yl)-1-(5-chloropyrimidin-2-yl)-1-methoxypropane-2-sulfonamide], the 50% effective concentration (EC50) worked out at 27 nM.

As to `COc1ncnc(OC)c1-n1c(NS(=O)(=O)[C@@H](C)[C@H](C)c2ncc(F)cn2)nnc1-c1cnn2c1CCC2` [Example 480.0, (2S,3R)-N-(5-(5,6-dihydro-4H-pyrrolo[1,2-b]pyrazol-3-yl)-4-(4,6-dimethoxypyrimidin-5-yl)-4H-1,2,4-triazol-3-yl)-3-(5-fluoropyrimidin-2-yl)butane-2-sulfonamide], the EC50 is 4.4 nM.

For `COc1cnc([C@@H](C)[C@H](C)S(=O)(=O)Nc2nnc(-c3ccn(C)n3)n2-c2c(F)cccc2F)cn1` [Example 230.0, (2S,3R)-N-(4-(2,6-difluorophenyl)-5-(1-methyl-1H-pyrazol-3-yl)-4H-1,2,4-triazol-3-yl)-3-(5-methoxy-2-pyrazinyl)-2-butanesulfonamide], the EC50 is 25 nM.

With `COc1cccc(OC)c1-n1c(NS(=O)(=O)[C@@H]2CCCN(c3ncc(F)cn3)C2)nnc1-c1ccn(C)n1` (single isomer, unassigned) [Example 262.0, (3R)-N-(4-(2,6-dimethoxyphenyl)-5-(1-methyl-1H-pyrazol-3-yl)-4H-1,2,4-triazol-3-yl)-1-(5-fluoro-2-pyrimidinyl)-3-piperidinesulfonamide or (3S)-N-(4-(2,6-dimethoxyphenyl)-5-(1-methyl-1H-pyrazol-3-yl)-4H-1,2,4-triazol-3-yl)-1-(5-fluoro-2-pyrimidinyl)-3-piperidinesulfonamide], the EC50 was 4.8 nM.

On to `COc1cccc(OC)c1-n1c(NS(=O)(=O)[C@@H](C)[C@H](OC)c2cnc(C)cn2)nnc1-c1ccn(C(F)F)n1` [Example 223.0, (1R,2S)-N-(5-(1-(difluoromethyl)-1H-pyrazol-3-yl)-4-(2,6-dimethoxyphenyl)-4H-1,2,4-triazol-3-yl)-1-methoxy-1-(5-methyl-2-pyrazinyl)-2-propanesulfonamide], for which the EC50 is 2.9 nM.

Turning to `COc1ncnc(OC)c1-n1c(NS(=O)(=O)[C@@H](C)[C@H](C)c2ncc(C)cn2)nnc1-c1noc2ccccc12` [Example 88.0, (2S,3R)-N-(5-(benzo[d]isoxazol-3-yl)-4-(4,6-dimethoxypyrimidin-5-yl)-4H-1,2,4-triazol-3-yl)-3-(5-methylpyrimidin-2-yl)butane-2-sulfonamide], the half-maximal effective concentration (EC50) was found to be 50 nM.

On to `CC(C)O[C@@H](c1ncc(Cl)cn1)[C@H](C)S(=O)(=O)Nc1nnc(-c2cnn(C)c2)n1C1CC1` [Example 536.0, (1S,2S)-1-(5-chloro-2-pyrimidinyl)-N-(4-cyclopropyl-5-(1-methyl-1H-pyrazol-4-yl)-4H-1,2,4-triazol-3-yl)-1-(2-propanyloxy)-2-propanesulfonamide], for which the EC50 is 70 nM.

For `COc1cccc(OC)c1-n1c(NS(=O)(=O)[C@@H](C)[C@H](OC)c2ncc(C)cn2)nnc1-c1cc(C2CC2)on1` [Example 424.0, (1R,25)-N-(5-(5-cyclopropylisoxazol-3-yl)-4-(2,6-dimethoxyphenyl)-4H-1,2,4-triazol-3-yl)-1-methoxy-1-(5-methylpyrimidin-2-yl)propane-2-sulfonamide], the 50% effective concentration (EC50) amounted to 21 nM.

For `CCc1csc(-c2nnc(NS(=O)(=O)CCc3ccc(F)cc3C#N)n2-c2c(OC)cccc2OC)n1` [Example 153.0, 2-(2-cyano-4-fluorophenyl)-N-(4-(2,6-dimethoxyphenyl)-5-(4-ethylthiazol-2-yl)-4H-1,2,4-triazol-3-yl)ethanesulfonamide], the EC50 was 11 nM.

Take `COc1cccc(OC)c1-n1c(NS(=O)(=O)CCc2ccc(F)cc2C#N)nnc1-c1nc(C)cs1` [Example 147.0, 2-(2-Cyano-4-fluorophenyl)-N-(4-(2,6-dimethoxyphenyl)-5-(4-methylthiazol-2-yl)-4H-1,2,4-triazol-3-yl)ethanesulfonamide]: the concentration giving a half-maximal response (EC50) came to 1.3 nM.

For the compound `COc1cccc(OC)c1-n1c(NS(=O)(=O)[C@H](C)[C@@H](C)c2ncc(F)cn2)nnc1-c1nc(C)cs1` (single isomer, unassigned) [Example 121.0], the EC50 was determined as 12 nM.

Consider `COc1cccc(OC)c1-n1c(NS(=O)(=O)CC[C@@H](O)C2CCCC2)nnc1-c1nc(C)cs1` (mixture of isomers) [Example 98.0, (R)-3-Cyclopentyl-N-(4-(2,6-dimethoxyphenyl)-5-(4-methylthiazol-2-yl)-4H-1,2,4-triazol-3-yl)-3-hydroxypropane-1-sulfonamide and (S)-3-cyclopentyl-N-(4-(2,6-dimethoxyphenyl)-5-(4-methylthiazol-2-yl)-4H-1,2,4-triazol-3-yl)-3-hydroxypropane-1-sulfonamide], for which the EC50 is 5.3 nM.

On to `C[C@H](c1ncc(Cl)cn1)[C@H](C)S(=O)(=O)Nc1nnc(-c2ccn(C)n2)n1-c1c(F)cccc1F` [Example 228.0, (2S,3R)-3-(5-chloro-2-pyrimidinyl)-N-(4-(2,6-difluorophenyl)-5-(1-methyl-1H-pyrazol-3-yl)-4H-1,2,4-triazol-3-yl)-2-butanesulfonamide], for which the EC50 turned out to be 4 nM.

`COCC1(n2c(NS(=O)(=O)[C@@H](C)[C@H](OC)c3ncc(Cl)cn3)nnc2-c2n[nH]c3ccc(C)cc23)CC1` [Example 493.0, (1R,2S)-1-(5-chloropyrimidin-2-yl)-1-methoxy-N-(4-(1-(methoxymethyl)cyclopropyl)-5-(5-methyl-1H-indazol-3-yl)-4H-1,2,4-triazol-3-yl)propane-2-sulfonamide]: the EC50 worked out at 43 nM.

On to `CO[C@H](c1ncc(Cl)cn1)[C@H](C)S(=O)(=O)Nc1nnc(-c2cnn3c2CCC3)n1C1CC1` [Example 478.0], for which the EC50 came out at 11 nM.

As for `COc1cccc(OC)c1-n1c(NS(=O)(=O)CCc2ccc(Cl)cc2)nnc1-c1ccsc1` [Example 141.0, 2-(4-chlorophenyl)-N-(4-(2,6-dimethoxyphenyl)-5-(thiophen-3-yl)-4H-1,2,4-triazol-3-yl)ethanesulfonamide], the concentration for a half-maximal effect (EC50) is 9.4 nM.
